Test results taken from ChEMBL document CHEMBL1134960, “Benzotrithiole 2-oxide: a new family of thiol-activated DNA-cleaving functionalities” (Bioorg Med Chem Lett, 2002).

Tests used:
Type in all cases: functional, cell-based
[1] = tested on: HT-29; assay: Cytotoxicity against Colon cancer cell lines HT-29 was determined; settings: Homo sapiens
[2] = tested on: MCF7; assay: Cytotoxicity against human breast carcinoma cell lines MCF-7
[3] = tested on: UMUC3; assay: Cytotoxicity against bladder cancer cell lines UMUC3 was determined; settings: Homo sapiens
[4] = tested on: A498; assay: Cytotoxicity against human kidney carcinoma cell lines A4982LM
[5] = Cytotoxicity against Breast cancer cell lines MDA-231 was determined; settings: Homo sapiens
[6] = Cytotoxicity against […] cancer cell lines PACA2 was determined; settings: Homo sapiens
[7] = tested on: A549; assay: Cytotoxicity against […] cell lines A549 was determined; settings: Homo sapiens
[8] = tested on: PC-3; assay: Cytotoxicity against prostate cancer cell lines PC-3 was determined; settings: Homo sapiens

[O-][S+]1Sc2ccccc2S1
IC50 [1]: 78.9 nM | IC50 [2]: 209 nM | IC50 [3]: 366 nM | IC50 [4]: 850 nM | IC50 [5]: 627 nM | IC50 [6]: 982 nM | IC50 [7]: 151 nM | IC50 [8]: 62.9 nM

COc1cccc2c1C(=O)c1c(O)c3c(c(O)c1C2=O)C[C@@](O)(C(=O)CO)C[C@@H]3O[C@H]1C[C@H](N)[C@H](O)[C@H](C)O1 [DOXORUBICIN]
IC50 [1]: 61.8 nM | IC50 [3]: 9.2 nM | IC50 [4]: 52.8 nM | IC50 [5]: 1.95 nM | IC50 [6]: 8.7 nM
